According to US12617779B2, “Self degradation-type CDK9 inhibitor prodrug and liposome encapsulating same” (Sumitomo Pharma Co., Ltd., priority 2021, dated 2026):

Experiment: Evaluation of conversion rate to active form in buffer solution (Experimental Example 1)
Format: physicochemical
Conditions: for Efficiency of conversion to Alvocidib: buffer solution; for Efficiency of conversion to Alvocidib / Production rate of Alvocidib / Residual rate: 37° C.; for Production rate of Alvocidib / Residual rate: 25 umol/L in buffer solution; for Stability in buffer solution at pH 5: pH 5, 37° C., up to 2 or 3 hours; for Conversion to Alvocidib at pH 7.4: pH 7.4, 37° C., up to 3 hours
In short: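 HPLC read-out: residual parent and Alvocidib production rate after 0, 0.5, 1, 2 and 3 hours. Compounds sat at 25 umol/L, 37° C, in buffers from pH 5.0 to 7.4 (50 mM citrate below pH 6.0, 50 mM phosphate otherwise).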

SMILES: CCCN(CC1CCCCN1)C(=O)Oc1cc(O)c2c(=O)cc(-c3ccccc3Cl)oc2c1[C@H]1CCN(C)C[C@H]1O (stereo partly drawn) [Example 9, 2-(2-chlorophenyl)-5-hydroxy-8-[(3S,4R)-3-hydroxy-1-methylpiperidin-4-yl]-4-oxo-4H-1-benzopyran-7-yl [(piperidin-2-yl)methyl]propylcarbamate]
- Efficiency of conversion to Alvocidib: higher efficiency
- Production rate of Alvocidib (pH5.0, 0 hr): 1.4%
- Residual rate (pH5.0, 0 hr): 96.2%
- Stability in buffer solution at pH 5: stable
- Production rate of Alvocidib (pH5.0, 0.5 hr): 1.7%
- Residual rate (pH5.0, 0.5 hr): 95.9%
- Production rate of Alvocidib (pH5.0, 1 hr): 2.1%
- Residual rate (pH5.0, 1 hr): 95.6%
- Production rate of Alvocidib (pH5.0, 2 hr): 2.8%
- Residual rate (pH5.0, 2 hr): 94.9%
- Production rate of Alvocidib (pH5.0, 3 hr): 3.6%
- Residual rate (pH5.0, 3 hr): 94.0%
- Production rate of Alvocidib (pH5.5, 0 hr): 1.4%
- Residual rate (pH5.5, 0 hr): 96.2%
- Production rate of Alvocidib (pH5.5, 0.5 hr): 2.4%
- Residual rate (pH5.5, 0.5 hr): 95.2%
- Production rate of Alvocidib (pH5.5, 1 hr): 3.4%
- Residual rate (pH5.5, 1 hr): 94.4%
- Production rate of Alvocidib (pH5.5, 2 hr): 5.2%
- Residual rate (pH5.5, 2 hr): 92.5%
- Production rate of Alvocidib (pH5.5, 3 hr): 7.2%
- Residual rate (pH5.5, 3 hr): 90.5%
- Production rate of Alvocidib (pH6.0, 0 hr): 1.5%
- Residual rate (pH6.0, 0 hr): 96.2%
- Production rate of Alvocidib (pH6.0, 0.5 hr): 4.9%
- Residual rate (pH6.0, 0.5 hr): 92.9%
- Production rate of Alvocidib (pH6.0, 1 hr): 8.2%
- Residual rate (pH6.0, 1 hr): 89.5%
- Production rate of Alvocidib (pH6.0, 2 hr): 14.4%
- Residual rate (pH6.0, 2 hr): 83.0%
- Production rate of Alvocidib (pH6.0, 3 hr): 20.8%
- Residual rate (pH6.0, 3 hr): 76.6%
- Production rate of Alvocidib (pH6.5, 0 hr): 1.7%
- Residual rate (pH6.5, 0 hr): 95.9%
- Production rate of Alvocidib (pH6.5, 0.5 hr): 11.2%
- Residual rate (pH6.5, 0.5 hr): 86.4%
- Production rate of Alvocidib (pH6.5, 1 hr): 20.2%
- Residual rate (pH6.5, 1 hr): 77.3%
- Production rate of Alvocidib (pH6.5, 2 hr): 35.4%
- Residual rate (pH6.5, 2 hr): 61.9%
- Production rate of Alvocidib (pH6.5, 3 hr): 49.0%
- Residual rate (pH6.5, 3 hr): 48.4%
- Production rate of Alvocidib (pH7.0, 0 hr): 2.2%
- Residual rate (pH7.0, 0 hr): 95.4%
- Production rate of Alvocidib (pH7.0, 0.5 hr): 24.1%
- Residual rate (pH7.0, 0.5 hr): 73.1%
- Production rate of Alvocidib (pH7.0, 1 hr): 42.0%
- Residual rate (pH7.0, 1 hr): 55.1%
- Production rate of Alvocidib (pH7.0, 2 hr): 66.1%
- Residual rate (pH7.0, 2 hr): 31.0%
- Production rate of Alvocidib (pH7.0, 3 hr): 81.0%
- Residual rate (pH7.0, 3 hr): 16.7%
- Production rate of Alvocidib (pH7.4, 0 hr): 3.4%
- Residual rate (pH7.4, 0 hr): 94.3%
- Conversion to Alvocidib at pH 7.4: rapidly converted to Alvocidib
- Production rate of Alvocidib (pH7.4, 0.5 hr): 48.7%
- Residual rate (pH7.4, 0.5 hr): 48.7%
- Production rate of Alvocidib (pH7.4, 1 hr): 73.6%
- Residual rate (pH7.4, 1 hr): 23.7%
- Production rate of Alvocidib (pH7.4, 2 hr): 92.4%
- Residual rate (pH7.4, 2 hr): 5.6%
- Production rate of Alvocidib (pH7.4, 3 hr): 96.7%
- Residual rate (pH7.4, 3 hr): 1.1%

SMILES: CC(C)N(CC1CCCCN1)C(=O)Oc1cc(O)c2c(=O)cc(-c3ccccc3Cl)oc2c1[C@H]1CCN(C)C[C@H]1O (stereo partly drawn) [Example 10, 2-(2-chlorophenyl)-5-hydroxy-8-[(3S,4R)-3-hydroxy-1-methylpiperidin-4-yl]-4-oxo-4H-1-benzopyran-7-yl [(piperidin-2-yl)methyl]propan-2-ylcarbamate]
- Efficiency of conversion to Alvocidib: higher efficiency
- Production rate of Alvocidib (pH5.0, 0 hr): 1.6%
- Residual rate (pH5.0, 0 hr): 90.6%
- Stability in buffer solution at pH 5: stable
- Production rate of Alvocidib (pH5.0, 0.5 hr): 2.1%
- Residual rate (pH5.0, 0.5 hr): 90.4%
- Production rate of Alvocidib (pH5.0, 1 hr): 2.5%
- Residual rate (pH5.0, 1 hr): 90.8%
- Production rate of Alvocidib (pH5.0, 2 hr): 3.1%
- Residual rate (pH5.0, 2 hr): 90.1%
- Production rate of Alvocidib (pH5.0, 3 hr): 3.9%
- Residual rate (pH5.0, 3 hr): 89.5%
- Production rate of Alvocidib (pH5.5, 0 hr): 1.6%
- Residual rate (pH5.5, 0 hr): 90.7%
- Production rate of Alvocidib (pH5.5, 0.5 hr): 2.7%
- Residual rate (pH5.5, 0.5 hr): 90.4%
- Production rate of Alvocidib (pH5.5, 1 hr): 3.6%
- Residual rate (pH5.5, 1 hr): 89.5%
- Production rate of Alvocidib (pH5.5, 2 hr): 5.4%
- Residual rate (pH5.5, 2 hr): 87.9%
- Production rate of Alvocidib (pH5.5, 3 hr): 7.2%
- Residual rate (pH5.5, 3 hr): 86.3%
- Production rate of Alvocidib (pH6.0, 0 hr): 1.7%
- Residual rate (pH6.0, 0 hr): 90.7%
- Production rate of Alvocidib (pH6.0, 0.5 hr): 4.9%
- Residual rate (pH6.0, 0.5 hr): 88.2%
- Production rate of Alvocidib (pH6.0, 1 hr): 8.1%
- Residual rate (pH6.0, 1 hr): 85.2%
- Production rate of Alvocidib (pH6.0, 2 hr): 14.1%
- Residual rate (pH6.0, 2 hr): 79.4%
- Production rate of Alvocidib (pH6.0, 3 hr): 19.8%
- Residual rate (pH6.0, 3 hr): 74.1%
- Production rate of Alvocidib (pH6.5, 0 hr): 1.9%
- Residual rate (pH6.5, 0 hr): 91.3%
- Production rate of Alvocidib (pH6.5, 0.5 hr): 10.8%
- Residual rate (pH6.5, 0.5 hr): 82.4%
- Production rate of Alvocidib (pH6.5, 1 hr): 19.4%
- Residual rate (pH6.5, 1 hr): 73.9%
- Production rate of Alvocidib (pH6.5, 2 hr): 34.6%
- Residual rate (pH6.5, 2 hr): 59.6%
- Production rate of Alvocidib (pH6.5, 3 hr): 46.2%
- Residual rate (pH6.5, 3 hr): 47.1%
- Production rate of Alvocidib (pH7.0, 0 hr): 2.2%
- Residual rate (pH7.0, 0 hr): 90.7%
- Production rate of Alvocidib (pH7.0, 0.5 hr): 22.8%
- Residual rate (pH7.0, 0.5 hr): 70.0%
- Production rate of Alvocidib (pH7.0, 1 hr): 40.0%
- Residual rate (pH7.0, 1 hr): 52.8%
- Production rate of Alvocidib (pH7.0, 2 hr): 63.6%
- Residual rate (pH7.0, 2 hr): 29.6%
- Production rate of Alvocidib (pH7.0, 3 hr): 76.4%
- Residual rate (pH7.0, 3 hr): 0.8%
- Production rate of Alvocidib (pH7.4, 0 hr): 3.1%
- Residual rate (pH7.4, 0 hr): 89.9%
- Conversion to Alvocidib at pH 7.4: rapidly converted to Alvocidib
- Production rate of Alvocidib (pH7.4, 0.5 hr): 46.1%
- Residual rate (pH7.4, 0.5 hr): 46.5%
- Production rate of Alvocidib (pH7.4, 1 hr): 71.5%
- Residual rate (pH7.4, 1 hr): 22.6%
- Production rate of Alvocidib (pH7.4, 2 hr): 87.2%
- Residual rate (pH7.4, 2 hr): 0.9%
- Production rate of Alvocidib (pH7.4, 3 hr): 91.6%
- Residual rate (pH7.4, 3 hr): 0.8%
